Patent US20250152550A1, “LYMPH-TARGETING FORMULATIONS” (Monash University, priority 2021, published 2025)

Columns and labels:
[1] = cited from earlier work
[2] = Lymph and plasma pharmacokinetics of orlistat in acute pancreatitis rats; format: in vivo, rat; details: AP rats relative to healthy animals
Excerpt: FIG. 4 illustrates lymph and plasma pharmacokinetics of orlistat in lymph diverted or lymph intact sham or acute pancreatitis (AP) rats intestinally administered a blank long chain fatty acid (LC-FA), orlistat LC-FA (LC-FA+O), or orlistat lipid free formulation (LFF+O). Dose-normalised lymph concentration of total orlistat (open and closed ring forms) over time (Panel A), cumulative lymphatic transport of total orlistat (open and closed ring forms) over time (Panel B), gut-lymph concentrations of triglyceride (TG) (Panel C), cumulative TG mass transport in gut-lymph (Panel D), dose-normalised plasma concentrations of total orlistat (open and closed ring forms) (Panel E), and lymph to plasma concentration ratios of orlistat (Panel F) over time. […]
In the previous study it was determined in healthy rats that orlistat administration in a long chain fatty acid (LC-FA) formulation promotes lymphatic drug transport when compared to administration in a lipid free formulation (LFF). […] Blood pressure and heart rate were also determined. […]
After initiation of dosing of the formulations, lymph was collected continuously for the duration of the experiment (i.e. up to 4 h post initiation of formulation dosing) into pre-weighed 1.5 ml tubes that were kept in an ice bath. Lymph collection tubes were changed every hour and lymph flow was determined gravimetrically. […]

[3] = format: in vivo; details: intestinal and IV groups; below the limit of quantitation
Method: Systemic availability was determined in lymph-intact anaesthetised rats with cannulas inserted into the carotid artery and duodenum for blood collection and formulation infusion, respectively. To enable the calculation of absolute bioavailability an additional group was administered orlistat intravenously via a jugular vein cannula, and blood samples collected from a carotid artery cannula over time.
To enable determination of systemic availability following intestinal dosing of selected formulations (i.e. the 40 mg oleic acid and olive oil formulations containing 8 mg/kg orlistat) a separate group of lymph-intact animals (i.e. non-lymph cannulated) were cannulated at the duodenum and carotid artery to enable formulation administration and blood collection, respectively. After surgery the rats were hydrated via intraduodenal infusion of 2.8 ml/h normal saline for at least 30 min, followed by intraduodenal infusion of the formulations at 2.8 ml/h for 2 h. […]
For the plasma pharmacokinetic studies, the absolute bioavailability following intestinal delivery of orlistat was calculated from:
Where AUC0-8h intestinally administered and IV administered are the area under the plasma concentration time curves from time 0 to 8 h after intestinal and IV administration, respectively. Plasma AUCs were calculated using the linear trapezoidal method.

[4] = healthy volunteers, oral, standard capsule formulations

## CCCCCCCCCCC[C@@H](C[C@@H]1OC(=O)[C@H]1CCCCCC)OC(=O)[C@H](CC(C)C)NC=O [orlistat]
[1]; [4]
  Dose recovered in the faeces: more than 97%
  Dose recovered in the faeces in a non-metabolised form: 83.1%
[1]; oral administration in standard formulations, fed or fasted state
  Absorption and bioavailability of orlistat: < 1 % dose
[2]
  Gut-lymph uptake of orlistat in animals with AP: attenuated relative to healthy animals
[3]
  Plasma concentration of closed ring form of orlistat: < 50 ng/mL
